Values of other authors, collected in patent US20240299470A1, “METHODS OF PROBIOTIC TREATMENT TO IMPROVE HUMAN HEALTH” (SEED HEALTH INC., priority 2021, published 2024).

Key:
[1] = test system: mice; conditions: NOD2-dependent but MyD88-independent
[2] = test system: overweight individuals; conditions: delivered directly in the colon

Compound	protection from colitis [1]	energy intake, adiposity, and lipid liver content [2]	plasma levels of peptide YY (PYY) and glucagon-like peptide 1 (GLP-1) [2]
M-tri-Lys	protected mice from colitis	–	–
CCC(=O)O [propionate]	–	reduced	increased
